Measured values taken from patent US8841257B2, “Inhibitors of STAT3 and uses thereof” (Board of Regents, The University of Texas System, priority 2009, dated 2014).
Entries after “also recorded” stand apart in the source; their conditions may differ.

Assays:
[1] = tested on: non-small cell lung cancer cell lines; test: Lung tumor cell viability assay, NSCLC cell lines; format: cell-based; conditions: 0.25-5.0 μM in DMSO; 72 h
Procedure: Lung Tumor Cell Viability Assay: H1819, H1299 and H827 lung tumor cells were seeded in 6-well plates at a density of 6×10^4, 4×10^4 and 5×10^4 cells/well, respectively. Prodrugs were dissolved in DMSO to make a stock concentration of 500 μM. The following day the cells were treated either with DMSO alone or with 0.25 μM, 0.5 μM, 1.0 μM, 2.5 μM and 5.0 μM of the compounds from Example 1, Example 16, and Example 22. Seventy two h after treatment with the drug the cells were subjected to cell viability assay using trypan blue. […] Cells were plated and after 24 hr were treated with the compound of Example 16 in DMSO. After 72 hr, cells were counted. Note that vertical axes are different for each plot.

STAT5 = test: EGF-stimulated STAT5 phosphorylation in MDA-MB-468 cells; format: cell-based, human; conditions: 1.5 hr prodrug, then EGF 100 ng/mL 30 min
Procedure: (§1) Effect of prodrug on the phosphorylation of STAT3, STAT5 and Akt in response to Epidermal Growth Factor stimulation. MDA-MB-468 cells were prepared as above. Prodrugs were prepared as 10 mM stock solutions in DMSO and aliquots were added to the culture media to give the correct final concentrations. After 1.5 hr EGF was added at 100 ng/mL. After 30 minutes cells were collected and lysed and proteins were separated by PAGE and transferred to three PVDF filters as above. The first filter was blocked with 5% bovine serum albumin and probed for total and phosphoStat3 as above. The second filter was probed for phosphoSer473Akt and total Akt using appropriate antibodies and similar detection procedures to those used for STAT3. The third filter was probed for phosphoTyr699 Stat5 and total STAT5 using appropriate antibodies and similar detection procedures to those used for STAT3.

Akt = test: EGF-stimulated Akt Ser473 phosphorylation in MDA-MB-468 cells; format: cell-based, human; conditions: 1.5 hr prodrug, then EGF 100 ng/mL 30 min
Procedure: as §1

[2] = tested on: Focal Adhesion Kinase (FAK); test: Phosphorylation of Focal Adhesion Kinase Tyr861 in MDA-MB-468 cells; format: cell-based, human; conditions: 2 hr treatment
From the text: Effect of Prodrug on the phosphorylation of Focal Adhesion Kinase (FAK) in MDA-MB-468 breast tumor cells. MDA-MB-468 cells express constitutive phosphorylation of Tyr861 of FAK (Laird, A. et al., Src Family Kinase Activity is Required For Signal Tranducer and Activator of Transcription 3 and Focal Adhesion Kinase Phosphorylation and Vascular Endothelial Growth Factor Signaling In Vivo and For Anchorage-Dependent and Independent Growth Of Human Tumor Cells, Mol Cancer Ther, 2, 461-9(2003). a unique substrate of Src upon recruitment via its SH2 domain (Calalb, M. B., et al, S. K. Focal adhesion kinase tyrosine-861 is a major site of phosphorylation by Src. Biochem Biophys Res Commun 1996, 228, 662-8 (1996.) To test for cross reactivity to the Src SH2 domain, MDA-MB-468 cell extracts were probed for phosphorylation of Tyr861 of FAK.

STAT3 [3] = molecular target: T1, STAT3 (Homo sapiens, UniProt P40763); test: Inhibition of Stat3 tyrosine705 phosphorylation in MDA-MB-468 cells; format: cell-based; set-up: host or cells: MDA-MB-468 breast tumor cells; conditions: 2 h; for inhibition of Tyr705 phosphorylation of Stat3 (potency in words): prodrug in DMSO
Procedure: Inhibition of Stat3 tyrosine705 phosphorylation in MDA-MB-468 cells. MDA-MB-468 breast tumor cells (0.4×10^6) were plated onto 35 mm culture dishes and were allowed to grow overnight. Prodrugs were prepared as 10 mM stock solutions in DMSO and aliquots were added to the culture media to give the correct final concentrations. After 2 h the cells were washed with ice cold phosphate buffered saline. Washed cells were treated with lysis buffer (50 mM Hepes, pH 7.4, 150 mM NaCl, 1.5 mM MgCl2, 1 mM EGTA, 100 mM NaF, 10 mM sodium pyrophosphate, 10% glycerol, 1% Triton X-100, 1 mM PMSF, 1 mM Na3VO4, 10 μg/mL leupeptin and 10 μg/mL aprotinin). Cell-free detergent extracts were centrifuged at 15,000 rpm in a microcentriguge for 30 min at 4° C. and the protein concentrations of the supernatants determined. Aliquots containing 12 μg of protein were separated on 8% SDS-PAGE and were transferred to PVDF filters. The filters were blocked with 5% bovine serum albumin and were probed with pStat3^Y705 antibody followed by secondary antibody, whose signal was detected with an enhanced chemiluminescence kit (ECL, Amersham, Chicago, Ill.). Filters were stripped with stripping buffer (62.5 mM Tris, pH 6.8, 2% SDS, and 0.1 M 2-mercaptoethanol) at 50° C. for 30 min. Filters were then probed with total Stat3 antibody and visualized with chemiluminescence as above.

STAT3 [4] = molecular target: T1, STAT3; test: EGF-stimulated STAT3 phosphorylation in MDA-MB-468 cells; format: cell-based; set-up: host or cells: MDA-MB-468 breast tumor cells; conditions: 1.5 hr prodrug, then EGF 100 ng/mL 30 min
Procedure: as §1

T1 sequence (P40763 whole entry): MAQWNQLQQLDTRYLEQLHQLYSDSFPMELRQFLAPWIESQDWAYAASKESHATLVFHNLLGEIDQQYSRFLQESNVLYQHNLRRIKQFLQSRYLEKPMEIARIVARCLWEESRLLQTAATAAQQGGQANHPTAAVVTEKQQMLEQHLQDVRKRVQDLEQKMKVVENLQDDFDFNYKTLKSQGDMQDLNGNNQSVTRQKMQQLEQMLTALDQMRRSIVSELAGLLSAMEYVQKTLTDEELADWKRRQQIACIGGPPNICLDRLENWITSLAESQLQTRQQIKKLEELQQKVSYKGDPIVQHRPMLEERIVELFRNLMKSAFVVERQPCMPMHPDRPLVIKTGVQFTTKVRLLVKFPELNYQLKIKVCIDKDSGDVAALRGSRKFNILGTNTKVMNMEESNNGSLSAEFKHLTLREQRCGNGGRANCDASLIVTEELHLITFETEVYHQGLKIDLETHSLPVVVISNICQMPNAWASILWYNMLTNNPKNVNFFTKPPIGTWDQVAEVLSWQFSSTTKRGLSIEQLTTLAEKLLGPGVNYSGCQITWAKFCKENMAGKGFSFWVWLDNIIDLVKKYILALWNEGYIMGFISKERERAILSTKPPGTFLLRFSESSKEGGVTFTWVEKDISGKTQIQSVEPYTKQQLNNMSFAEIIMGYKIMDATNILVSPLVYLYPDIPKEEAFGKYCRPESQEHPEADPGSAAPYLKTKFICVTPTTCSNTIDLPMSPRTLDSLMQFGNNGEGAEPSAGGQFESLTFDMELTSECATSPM

Compound | growth / viability of NSCLC cell lines [1] | Stat5 phosphorylation after EGF (STAT5) | Akt Ser473 phosphorylation after EGF (Akt) | phosphorylation of FAK Tyr861 [2] | concentration as low as which partial inhibition of STAT3 phosphorylation was seen (STAT3 [3]) | concentration at which complete inhibition of STAT3 phosphorylation occurred (STAT3 [3]) | inhibition of Tyr705 phosphorylation of Stat3 (potency in words) (STAT3 [3]) | EGF-induced increase in Stat3 phosphorylation (STAT3 [4])
C/C(=C\C(=O)N[C@H]1CCc2cccc3c2N(C1=O)[C@H](C(=O)N[C@H](C)CCC(N)=O)C3)c1ccc(C(F)(F)P(=O)(OCOC(=O)C(C)(C)C)OCOC(=O)C(C)(C)C)cc1 [Example 1, (2E)-3-[4-[[bis[(2,2-dimethyl-1-oxopropoxy)methoxy]phosphinyl]difluoromethyl]phenyl]-but-2-enoyl-Haic-(R)-4-aminopentamide] | inhibition | no effect | no effect | no reduction; also recorded: do not inhibit | 10 nM | 500 nM | very potent inhibitors | effective at inhibiting
CCCC[C@H](NC(=O)/C=C(\C)c1ccc(C(F)(F)P(=O)(OCOC(=O)C(C)(C)C)OCOC(=O)C(C)(C)C)cc1)C(=O)N1C[C@H]2CC2[C@H]1C(=O)N[C@@H](CCC(N)=O)[C@@H](C)OCc1ccccc1 (stereo partly drawn) [Example 16, (2E)-3-[4-[[bis[(2,2-dimethyl-1-oxopropoxy)methoxy]phosphinyl]difluoromethyl]phenyl]-but-2-enoyl-norleucinyl-(2S,3R,4S)-methanoprolinyl-(4S,5R)-4-amino-5-benzyloxyhexamide] | inhibition of growth | no effect | no effect | no reduction; also recorded: do not inhibit | 10 nM | 500 nM | very potent inhibitors | effective at inhibiting
